Data: ChEMBL document CHEMBL4823282, “Novel Broad-Spectrum Antimicrobial Peptide Derived from Anoplin and Its Activity on Bacterial Pneumonia in Mice” (J Med Chem, 2021)
In brackets after ≈: the same amount, converted by molar mass. Activity calls are given as the source filed them. The rule behind the calls is not given here.

Tests used:
Enterococcus faecalis = test: Antibacterial activity against Enterococcus faecalis ATCC 29212 incubated for 18 hrs by CLSI based broth dilution method; format: functional
Klebsiella pneumoniae [1] = test: Antibacterial activity against Klebsiella pneumoniae ATCC 700603 incubated for 18 hrs by CLSI based broth dilution method; format: functional
Acinetobacter baumannii = test: Antibacterial activity against Acinetobacter baumannii ATCC 19606 incubated for 18 hrs by CLSI based broth dilution method; format: functional; conditions: ATCC 19606 = CIP 70.34 = JCM 6841
Erythrocyte = test: Hemolytic activity in BALB/C mouse erythrocytes incubated for 1 hr by absorbance method; format: ADME, cell-based
Bacteria [2] = test: Antibacterial activity against bacteria incubated for 18 hrs by CLSI based broth dilution method; format: functional
Fungi = test: Antibacterial activity against fungi incubated for 18 hrs by CLSI based broth dilution method; format: functional
[3] = Selectivity ratio of MHC10 for BALB/C mouse erythrocytes to MIC for bacteria; format: toxicity
[4] = Selectivity ratio of MHC10 for BALB/C mouse erythrocytes to MIC for fungi; format: toxicity
Bacteria [5] = test: Antibacterial activity against Gram-positive bacteria incubated for 18 hrs by CLSI based broth dilution method; format: functional
[6] = Selectivity ratio of MHC10 for BALB/C mouse erythrocytes to MIC for gram positive bacteria; format: toxicity
Bacteria [7] = test: Antibacterial activity against Gram-negative bacteria incubated for 18 hrs by CLSI based broth dilution method; format: functional
[8] = Selectivity ratio of MHC10 for BALB/C mouse erythrocytes to MIC for gram-negative bacteria; format: toxicity
Staphylococcus aureus [9] = test: Antibacterial activity against Staphylococcus aureus ATCC 25923 incubated with 0.02 ug/ml trypsin for 6 hrs followed by bacterial addition and measured after 18 hrs by CLSI based broth dilution method; format: functional, organism-based; conditions: dose 0.02 µg/ml, time 23.0 hrs
Klebsiella pneumoniae [10] = test: Antibacterial activity against Klebsiella pneumoniae ATCC 700603 incubated with 0.02 ug/ml trypsin for 6 hrs followed by bacterial addition and measured after 18 hrs by CLSI based broth dilution method; format: functional, organism-based; conditions: dose 0.02 µg/ml, time 23.0 hrs
Staphylococcus aureus [11] = test: Antibacterial activity against Staphylococcus aureus ATCC 25923 incubated with 0.02 ug/ml chymotrypsin for 6 hrs followed by bacterial addition and measured after 18 hrs by CLSI based broth dilution method; format: functional, organism-based; conditions: dose 0.02 µg/ml, time 23.0 hrs
Klebsiella pneumoniae [12] = test: Antibacterial activity against Klebsiella pneumoniae ATCC 700603 incubated with 0.02 ug/ml chymotrypsin for 6 hrs followed by bacterial addition and measured after 18 hrs by CLSI based broth dilution method; format: functional, organism-based; conditions: dose 0.02 µg/ml, time 23.0 hrs
Escherichia coli [13] = test: Antibiofilm activity against Escherichia coli ATCC 25922 at 4 times MIC incubated for 24 hrs by crystal violet staining based assay; format: functional, organism-based
Klebsiella pneumoniae [14] = test: Antibiofilm activity against Klebsiella pneumoniae ATCC 700603 at 2 to 4 times MIC incubated for 24 hrs by crystal violet staining based assay; format: functional, organism-based
Staphylococcus aureus [15] = test: Antibacterial activity against Staphylococcus aureus ATCC 25923 at 0.5 to 1 times MIC incubated for 24 hrs by crystal violet staining based assay; format: functional, organism-based
Staphylococcus aureus [16] = test: Antibacterial activity against Staphylococcus aureus ATCC 25923 incubated for 18 hrs by CLSI based broth dilution method; format: functional
Bacillus subtilis = test: Antibacterial activity against Bacillus subtilis ATCC 23857 incubated for 18 hrs by CLSI based broth dilution method; format: functional
[17] = system: Staphylococcus epidermidis; test: Antibacterial activity against Staphylococcus epidermidis ATCC 12228 incubated for 18 hrs by CLSI based broth dilution method; format: functional
Escherichia coli [18] = test: Antibacterial activity against Escherichia coli ATCC 25922 incubated for 18 hrs by CLSI based broth dilution method; format: functional
Pseudomonas aeruginosa [19] = test: Antibacterial activity against Pseudomonas aeruginosa ATCC 27853 incubated for 18 hrs by CLSI based broth dilution method; format: functional
Pseudomonas aeruginosa [20] = test: Antibacterial activity against rifampin-resistant Pseudomonas aeruginosa ATCC 27853 incubated for 18 hrs in presence of EDTA by CLSI based broth dilution method; format: functional
Pseudomonas aeruginosa [21] = test: Antibacterial activity against Pseudomonas aeruginosa ATCC 27853 incubated for 18 hrs in presence of EDTA by CLSI based broth dilution method; format: functional
Pseudomonas aeruginosa [22] = test: Antibacterial activity against gentamicin-resistant Pseudomonas aeruginosa ATCC 27853 incubated for 18 hrs by CLSI based broth dilution method; format: functional
Pseudomonas aeruginosa [23] = test: Antibacterial activity against Pseudomonas aeruginosa ATCC 27853 assessed as increase in MIC at sub-MIC level after 15 passages by broth microdilution assay; format: functional
Pseudomonas aeruginosa [24] = test: Antibacterial activity against rifampin-resistant Pseudomonas aeruginosa ATCC 27853 incubated for 18 hrs by CLSI based broth dilution method; format: functional
Pseudomonas aeruginosa [25] = test: Antibacterial activity against gentamicin-resistant Pseudomonas aeruginosa ATCC 27853 incubated for 18 hrs in presence of EDTA by CLSI based broth dilution method; format: functional, organism-based

Compound: CC[C@H](C)[C@H](NC(=O)CN)C(=O)NCC(=O)N[C@@H](C)C(=O)N[C@H](C(=O)N[C@@H](CC(C)C)C(=O)N[C@@H](CCCCN)C(=O)N[C@H](C(=O)N[C@@H](CC(C)C)C(=O)N[C@H](C(=O)N[C@H](C(=O)NCC(=O)N[C@@H](CC(C)C)C(=O)N1CCC[C@H]1C(=O)N[C@@H](C)C(=O)N[C@@H](CC(C)C)C(=O)N[C@H](C(=O)N[C@@H](CO)C(=O)N[C@@H](Cc1c[nH]c2ccccc12)C(=O)N[C@H](C(=O)N[C@@H](CCCCN)C(=O)N[C@@H](CCCNC(=N)N)C(=O)N[C@@H](CCCCN)C(=O)N[C@@H](CCCNC(=N)N)C(=O)N[C@@H](CCC(N)=O)C(=O)N[C@@H](CCC(N)=O)C(N)=O)[C@@H](C)CC)[C@@H](C)CC)[C@@H](C)O)[C@@H](C)O)C(C)C)C(C)C [MELITTIN]
- MIC (Enterococcus faecalis): 4 µM (≈ 11.4 µg/mL)
- MIC (Klebsiella pneumoniae [1]): 16 µM (≈ 45.5 µg/mL)
- MIC (Acinetobacter baumannii): 2 µM (≈ 5.69 µg/mL)
- MHC10 (Erythrocyte): 2.26 µM
- MIC (Bacteria [2]): 4 µM (≈ 11.4 µg/mL)
- MIC (Fungi): 4 µM (≈ 11.4 µg/mL)
- selectivity ratio [3]: 57
- selectivity ratio [4]: 57
- MIC (Bacteria [5]): 2.38 µM (≈ 6.77 µg/mL)
- selectivity ratio at 18 h [6]: 0.95
- MIC (Bacteria [7]): 6.73 µM (≈ 19.2 µg/mL)
- selectivity ratio [8]: 0.34
- Activity (Staphylococcus aureus [9]): inactive
- Activity (Klebsiella pneumoniae [10]): inactive
- Activity (Staphylococcus aureus [11]): inactive
- Activity (Klebsiella pneumoniae [12]): inactive
- Activity (Escherichia coli [13]): Active
- Activity (Klebsiella pneumoniae [14]): Active
- Activity (Staphylococcus aureus [15]): Active

Compound: CO[C@H]1/C=C/O[C@@]2(C)Oc3c(C)c(O)c4c(O)c(c(/C=N/N5CCN(C)CC5)c(O)c4c3C2=O)NC(=O)/C(C)=C\C=C\[C@H](C)[C@H](O)[C@@H](C)[C@@H](O)[C@@H](C)[C@H](OC(C)=O)[C@@H]1C [RIFAMPIN]
- MIC (Staphylococcus aureus [16]): < 1 µM
- MIC (Bacillus subtilis): < 1 µM
- MIC (Enterococcus faecalis): < 1 µM
- MIC [17]: < 1 µM
- MIC (Escherichia coli [18]): 4 µM (≈ 3.29 µg/mL)
- MIC (Pseudomonas aeruginosa [19]): 4 µM (≈ 3.29 µg/mL)
- MIC (Klebsiella pneumoniae [1]): 32 µM (≈ 26.3 µg/mL)
- MIC (Acinetobacter baumannii): < 1 µM
- MIC (Pseudomonas aeruginosa [20]): 2050 µM
- MIC (Pseudomonas aeruginosa [21]): 2 µM
- MIC (Pseudomonas aeruginosa [22]): 32 µM (≈ 26.3 µg/mL)
- fold change (FC) (Pseudomonas aeruginosa [23]): 128
- MIC (Pseudomonas aeruginosa [24]): 2050 µM (≈ 1690 µg/mL)

Compound: GENTAMICIN
- MIC (Staphylococcus aureus [16]): < 1 µM
- MIC (Bacillus subtilis): < 1 µM
- MIC (Enterococcus faecalis): 4 µM
- MIC [17]: < 1 µM
- MIC (Escherichia coli [18]): 4 µM
- MIC (Pseudomonas aeruginosa [19]): 4 µM
- MIC (Klebsiella pneumoniae [1]): 16 µM
- MIC (Acinetobacter baumannii): < 1 µM
- MIC (Pseudomonas aeruginosa [25]): 8 µM
- MIC (Pseudomonas aeruginosa [22]): 64 µM
- MIC (Pseudomonas aeruginosa [24]): 0.5 µM
